# Measured values published in patent publication US9096825B2, “7 α-hydroxysteroid dehydrogenase knockout mutants and use therefor” (Pharmazell GmbH, priority 2010, dated 2015).
# T1: 7β-HSDH obtainable from Collinsella aerofaciens DSM 3979 (Collinsella aerofaciens, UniProt A4ECA9)
# T1 sequence (A4ECA9 1-263): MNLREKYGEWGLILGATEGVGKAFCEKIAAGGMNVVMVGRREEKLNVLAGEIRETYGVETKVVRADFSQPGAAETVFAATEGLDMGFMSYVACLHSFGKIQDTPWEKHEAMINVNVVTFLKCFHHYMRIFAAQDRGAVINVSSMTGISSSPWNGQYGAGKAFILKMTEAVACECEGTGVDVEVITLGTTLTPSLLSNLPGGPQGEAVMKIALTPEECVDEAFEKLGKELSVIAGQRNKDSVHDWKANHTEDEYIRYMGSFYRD
# B1: 7β-HSDH obtainable from Collinsella aerofaciens DSM 3979 (Collinsella aerofaciens ATCC 25986) (protein)
# chain: T1 sequence (A4ECA9 1-263)
# Experiments:
# [1] = target: T1, 7β-HSDH obtainable from Collinsella aerofaciens DSM 3979; experiment: Kinetic parameters of 7β-HSDH for substrates/cofactors
# E. coli BL21(DE3) = experiment: Incubation of cholic acid with E. coli culture, HPLC detection of the oxidation product; assay type: cell-based; details: 20 mM cholic acid added to 5 ml of culture
# [2] = tested on: E. coli BL21(DE3) Δ7α-HSDH; experiment: Incubation of cholic acid with knockout strain culture, HPLC detection of the oxidation product; assay type: cell-based; details: 20 mM cholic acid added to 5 ml of culture
# [3] = substrate: C[C@H](CCC(=O)O)[C@H]1CC[C@H]2[C@@H]3C(=O)C[C@@H]4CC(=O)CC[C@]4(C)[C@H]3CC(=O)[C@]12C; experiment: purified protein, by the assay type; details: other: substrate/cofactor of 7β-HSDH
# [4] = substrate: C[C@H](CCC(=O)O)[C@H]1CC[C@H]2[C@@H]3[C@@H](O)C[C@@H]4C[C@H](O)CC[C@]4(C)[C@H]3CC[C@]12C; experiment: purified protein, by the assay type; details: other: substrate/cofactor of 7β-HSDH
molecule,measurement,setting,value
"C[C@H](CCC(=O)O)[C@H]1CC[C@H]2[C@@H]3C(=O)C[C@@H]4C[C@H](O)CC[C@]4(C)[C@H]3CC[C@]12C [7-keto-LCA, 7-Ketolithocholic acid]",kcat,[1],950.77 1 μmol/(μmol × min)
same,Vmax,[1]; 1 U = 1 μmol/min,30.77 U/mg protein
"C[C@H](CCC(=O)O)[C@H]1CC[C@H]2[C@@H]3[C@H](O)C[C@@H]4C[C@H](O)CC[C@]4(C)[C@H]3C[C@H](O)[C@]12C [cholic acid, Cholic acid]","7α-HSDH activity against cholic acid (oxidation to 7-keto-3,12-dihydroxycholanic acid)",E. coli BL21(DE3),clearly showed 7α-HSDH activity
same,"oxidation product 7-keto-3,12-dihydroxycholanic acid detected by HPLC",[2],No oxidation product
B1,Km,[3],9.23 µM
same,Vmax,[3],28.3 µmol/min/mg
same,Km,[4],6.23 µM
same,Vmax,[4],38.2 µmol/min/mg
